Assay: Compatibility test of compound of formula (I) with lactose, change of impurities
Format: physicochemical
Details: room temperature
Experimental: A compatibility test was carried out with lactose (a reducing sugar) and the compound of formula (I) at room temperature in which, after both were mixed in a certain ratio, the changes of impurity in the compound of formula (I) were tested.

With `CS(=O)(=O)n1cc2c(n1)CN([C@@H]1C[C@H](N)[C@@H](c3cc(F)ccc3F)O[C@@H]1C(F)(F)F)C2` [Compound of formula (I)] the “Main peak area (%)” value was 99.247%, the Number of impurities was 5 and the “Total impurities (%)” value was 0.753%.

Source: US11974985B2, “Composition of aminopyran derivative” (HAISCO PHARMACEUTICAL GROUP CO., LTD., priority 2018, dated 2024)
